Experimental data as given in US10144742B2 (Millennium Pharmaceuticals, Inc., priority 2014, dated 2018).

What was measured:
hNAMPT protein = hNAMPT protein (Homo sapiens (Human), UniProt P43490); assay: NAMPT enzyme assay (TR-FRET/HTRF, BodiPY ligand, anti 6His-Tb); format: binding; settings: for inhibition at 1 µM: NAMPT inhibition at compound concentration 1 μM, read-out: Percent Inhibition; for IC50: NAMPT inhibition, IC50 range class, read-out: IC50
Procedure, shortened: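 Compound or DMSO was incubated for 1 h at room temperature, protected from light, with BodiPY ligand and hNAMPT labelled by terbium anti-6His antibody. The 520 nm to 486 nm emission ratio after 320 nm excitation gave inhibition versus vehicle, from which concentration-response curves yielded IC50.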

PC3 cells = assay: PC3 growth inhibition (Cell-titer glo, 72 hours); format: cell-based; settings: Homo sapiens, PC-3; compound concentration 1.667 μM; PC3 cells, 72 hours, Cell-titer glo; read-out: Percent Inhibition (PC3 growth inhibition)
Procedure, shortened: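 Compounds in AIM serum-free medium were applied for 72 h at 37 °C, 5% CO2 to PC3 cells plated overnight from RPMI1640 culture. Luminescence after 10 min CellTiter-Glo, normalised to DMSO, gave % viability at 1 μM or 1.667 μM, or GI50/LD50.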

Chain of hNAMPT protein (P43490 whole entry): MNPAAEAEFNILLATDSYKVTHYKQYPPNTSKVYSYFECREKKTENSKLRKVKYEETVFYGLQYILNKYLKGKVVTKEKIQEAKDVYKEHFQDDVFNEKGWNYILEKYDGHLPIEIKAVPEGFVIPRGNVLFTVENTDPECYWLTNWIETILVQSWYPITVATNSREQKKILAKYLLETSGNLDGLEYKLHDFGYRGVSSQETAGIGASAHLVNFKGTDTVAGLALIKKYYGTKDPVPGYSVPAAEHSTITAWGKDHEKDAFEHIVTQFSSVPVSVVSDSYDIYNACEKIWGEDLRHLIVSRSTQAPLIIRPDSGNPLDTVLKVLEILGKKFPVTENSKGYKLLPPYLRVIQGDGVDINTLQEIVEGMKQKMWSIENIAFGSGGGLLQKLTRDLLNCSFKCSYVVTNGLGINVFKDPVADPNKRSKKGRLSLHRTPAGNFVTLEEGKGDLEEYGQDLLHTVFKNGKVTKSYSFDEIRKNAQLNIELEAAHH

Row | Structure (SMILES) | inhibition at 1 µM (hNAMPT protein) [%] | IC50 (hNAMPT protein) [µM] | inhibition at 1.667 µM (PC3 cells) [%]
1 | O=C(NCCCc1ncc[nH]1)c1ccc2nc(-c3ccc(F)cc3)c(-c3ccc(Cl)cc3F)nc2c1 [Compound I-455, 3-(4-chloro-2-fluorophenyl)-2-(4-fluorophenyl)-N-[3-(1H-imidazol-2-yl)propyl]quinoxaline-6-carboxamide] | 80 | 0.1 to 0.5 | 3
2 | CN(C)C1CCC(Oc2nc3ccc(C(=O)NCCCc4ncc[nH]4)cc3nc2-c2ccc(F)cc2)CC1 (stereo not drawn) [Compound I-456, 2-{[4-(dimethylamino)cyclohexyl]oxy}-3-(4-fluorophenyl)-N-[3-(1H-imidazol-2-yl)propyl]quinoxaline-6-carboxamide] | > 99 | < 0.1 | 2
3 | COC1CCN(c2nc3ccc(C(=O)NCCCc4ncc[nH]4)cc3nc2-c2ccc(F)cc2)C1 (stereo not drawn) [Compound I-457, 3-(4-fluorophenyl)-N-[3-(1H-imidazol-2-yl)propyl]-2-(3-methoxypyrrolidin-1-yl)quinoxaline-6-carboxamide] | 98 | < 0.1 | 2
4 | N#Cc1cccc(-c2nc3cc(C(=O)NCCCc4ncc[nH]4)ccc3nc2-c2ccc(F)cc2)c1 [Compound I-458, 3-(3-cyanophenyl)-2-(4-fluorophenyl)-N-[3-(1H-imidazol-2-yl)propyl]quinoxaline-6-carboxamide] | 81 | 0.1 to 0.5 | 2
5 | O=C(NCCCc1ncc[nH]1)c1ccc2nc(OCc3ncc[nH]3)c(-c3ccc(F)cc3)nc2c1 [Compound I-459, 3-(4-fluorophenyl)-2-(1H-imidazol-2-ylmethoxy)-N-[3-(1H-imidazol-2-yl)propyl]quinoxaline-6-carboxamide] | 47 | 0.5 to 1 | > 99
6 | Cn1ccc(COc2nc3ccc(C(=O)NCCCc4ncc[nH]4)cc3nc2-c2ccc(F)cc2)n1 [Compound I-460, 3-(4-fluorophenyl)-N-[3-(1H-imidazol-2-yl)propyl]-2-[(1-methyl-1H-pyrazol-3-yl)methoxy]quinoxaline-6-carboxamide] | 99 | < 0.1 | 2
7 | O=C(NCCCc1ncc[nH]1)c1ccc2nc(-c3ccc(F)cc3)c(-c3ccc4c(c3)OCO4)nc2c1 [Compound I-461, 3-(1,3-benzodioxol-5-yl)-2-(4-fluorophenyl)-N-[3-(1H-imidazol-2-yl)propyl]quinoxaline-6-carboxamide] | 86 | 0.1 to 0.5 | 2
8 | C#CCOc1nc2ccc(C(=O)NCCCc3ncc[nH]3)cc2nc1-c1ccc(F)cc1 [Compound I-462, 3-(4-fluorophenyl)-N-[3-(1H-imidazol-2-yl)propyl]-2-(prop-2-yn-1-yloxy)quinoxaline-6-carboxamide] | 95 | < 0.1 | 2
9 | O=C(NCCCc1ncc[nH]1)c1ccc2nc(-c3ccc(F)cc3)c(-c3cccc(Cl)c3)nc2c1 [Compound I-463, 3-(3-chlorophenyl)-2-(4-fluorophenyl)-N-[3-(1H-imidazol-2-yl)propyl]quinoxaline-6-carboxamide] | 97 | < 0.1 | 3
10 | O=C(NCc1nc2cnccc2[nH]1)c1ccc2nc(-c3ccc(F)cc3)c(-c3ccc(F)cc3)nc2c1 [Compound I-464, 2,3-bis(4-fluorophenyl)-N-(1H-imidazo[4,5-c]pyridin-2-ylmethyl)quinoxaline-6-carboxamide] | > 99 | < 0.1 | 0
11 | O=C(NCCCc1ncc[nH]1)c1ccc2nc(N3CCCC3)c(-c3ccc(F)cc3)nc2c1 [Compound I-465, 3-(4-fluorophenyl)-N-[3-(1H-imidazol-2-yl)propyl]-2-(pyrrolidin-1-yl)quinoxaline-6-carboxamide] | 98 | < 0.1 | 2
12 | COc1cc(-c2nc3cc(C(=O)NCCCc4ncc[nH]4)ccc3nc2-c2ccc(F)cc2)c(F)cn1 [Compound I-466, 3-(5-fluoro-2-methoxy-4-pyridyl)-2-(4-fluorophenyl)-N-[3-(1H-imidazol-2-yl)propyl]quinoxaline-6-carboxamide] | 95 | < 0.1 | 2
13 | COc1ccc(C)c(-c2nc3cc(C(=O)NCCCc4ncc[nH]4)ccc3nc2-c2ccc(F)cc2)c1 [Compound I-467, 2-(4-fluorophenyl)-N-[3-(1H-imidazol-2-yl)propyl]-3-(5-methoxy-2-methylphenyl)quinoxaline-6-carboxamide] | 94 | < 0.1 | 2
14 | O=C(NCCCc1ncc[nH]1)c1ccc2nc(O[C@H]3CCOC3)c(-c3ccc(F)cc3)nc2c1 [Compound I-468, 3-(4-fluorophenyl)-N-[3-(1H-imidazol-2-yl)propyl]-2-[(3S)-tetrahydrofuran-3-yloxy]quinoxaline-6-carboxamide] | 99 | < 0.1 | 2
15 | O=C(NCCCc1ncc[nH]1)c1ccc2nc(OCc3nccs3)c(-c3ccc(F)cc3)nc2c1 [Compound I-469, 3-(4-fluorophenyl)-N-[3-(1H-imidazol-2-yl)propyl]-2-(1,3-thiazol-2-ylmethoxy)quinoxaline-6-carboxamide] | 98 | < 0.1 | 2
16 | COc1ccc(-c2nc3cc(C(=O)NCCCc4ncc[nH]4)ccc3nc2-c2ccc(F)cc2)cc1F [Compound I-470, 3-(3-fluoro-4-methoxyphenyl)-2-(4-fluorophenyl)-N-[3-(1H-imidazol-2-yl)propyl]quinoxaline-6-carboxamide] | 81 | 0.1 to 0.5 | 2
17 | Cc1cc(-c2nc3cc(C(=O)NCCCc4ncc[nH]4)ccc3nc2-c2ccc(F)cc2)ccc1F [Compound I-471, 3-(4-fluoro-3-methylphenyl)-2-(4-fluorophenyl)-N-[3-(1H-imidazol-2-yl)propyl]quinoxaline-6-carboxamide] | > 99 | < 0.1 | 2
18 | Cc1ccc(C#N)cc1-c1nc2cc(C(=O)NCCCc3ncc[nH]3)ccc2nc1-c1ccc(F)cc1 [Compound I-472, 3-(5-cyano-2-methylphenyl)-2-(4-fluorophenyl)-N-[3-(1H-imidazol-2-yl)propyl]quinoxaline-6-carboxamide] | 98 | < 0.1 | 2
19 | Cc1ccc(-c2nc3cc(C(=O)NCCCc4ncc[nH]4)ccc3nc2-c2ccc(F)cc2)s1 [Compound I-473, 2-(4-fluorophenyl)-N-[3-(1H-imidazol-2-yl)propyl]-3-(5-methyl-2-thienyl)quinoxaline-6-carboxamide] | 85 | 0.1 to 0.5 | 3
20 | O=C(NCCCc1ncc[nH]1)c1ccc2nc(-c3ccc(F)cc3)c(-c3ccc(F)c(F)c3)nc2c1 [Compound I-474, 3-(3,4-difluorophenyl)-2-(4-fluorophenyl)-N-[3-(1H-imidazol-2-yl)propyl]quinoxaline-6-carboxamide] | 95 | 0.1 to 0.5 | 3
21 | Cc1nn(C)cc1-c1nc2cc(C(=O)NCCCc3ncc[nH]3)ccc2nc1-c1ccc(F)cc1 [Compound I-475, 3-(1,3-dimethyl-1H-pyrazol-4-yl)-2-(4-fluorophenyl)-N-[3-(1H-imidazol-2-yl)propyl]quinoxaline-6-carboxamide] | 77 | 0.1 to 0.5 | 3
22 | O=C(NCCCc1ncc[nH]1)c1ccc2nc(Cc3ccc(Cl)cc3)c(-c3ccc(F)cc3)nc2c1 [Compound I-476] | 88 | 0.1 to 0.5 | 3
23 | O=C(NCCCc1ncc[nH]1)c1ccc2nc(-c3ccccc3)c(-c3cccs3)nc2c1 [Compound I-477, N-[3-(1H-imidazol-2-yl)propyl]-2-phenyl-3-(2-thienyl)quinoxaline-6-carboxamide] | > 99 | < 0.1 | 2
24 | CC(C)COc1nc2ccc(C(=O)NCCCc3ncc[nH]3)cc2nc1-c1ccc(F)cc1 [Compound I-478, 3-(4-fluorophenyl)-N-[3-(1H-imidazol-2-yl)propyl]-2-isobutoxyquinoxaline-6-carboxamide] | 96 | < 0.1 | 2
25 | Nc1ccc(-c2nc3cc(C(=O)NCCCc4ncc[nH]4)ccc3nc2-c2ccc(F)cc2)cc1 [Compound I-479, 3-(4-aminophenyl)-2-(4-fluorophenyl)-N-[3-(1H-imidazol-2-yl)propyl]quinoxaline-6-carboxamide] | 75 | 0.1 to 0.5 | 3
26 | O=C(NCCCc1ncc[nH]1)c1ccc2nc(-c3ccc(F)cc3)c(-c3cc(Cl)ccc3F)nc2c1 [Compound I-480, 3-(5-Chloro-2-fluoro-phenyl)-2-(4-fluorophenyl)-N-[3-(1H-imidazol-2-yl)propyl]quinoxaline-6-carboxamide] | 100 | < 0.1 | 1
27 | COc1ccc(F)c(-c2nc3cc(C(=O)NCCCc4ncc[nH]4)ccc3nc2-c2ccc(F)cc2)c1 [Compound I-481, 3-(2-fluoro-5-methoxyphenyl)-2-(4-fluorophenyl)-N-[3-(1H-imidazol-2-yl)propyl]quinoxaline-6-carboxamide] | 98 | < 0.1 | 2
